Data reported in EP4656642A1, “ESTROGEN RECEPTOR PROTEOLYSIS TARGETING CHIMERA COMPOUND AND USE THEREOF” (GAN & LEE PHARM CO., LTD, priority 2023, dated 2024).
pIC50: −log10 of the molar value.

What was measured:
Format in all cases: cell-based
[1] = system: T-47D cells; assay: Inhibition of cell proliferation in T-47D cells (CCK-8, 6 days); conditions: 6 days of treatment
How it was run: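 T-47D cells at 3,000 cells/well in RPMI 1640 with 10% FBS were exposed to a concentration series of PROTAC compounds for 6 days at 37 °C, 5% CO2. Viability was read by CCK-8, and IC50 values were derived for proliferation inhibition.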

[2] = system: MCF-7 cells; assay: Inhibition of cell proliferation of MCF-7 cells (CCK-8, 9 days)
How it was run: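 MCF-7 cells seeded at 800 cells/well in DMEM with 10% FBS, exposed to a range of compound concentrations for 9 days at 37°C, 5% CO2. Viability read by CCK-8; IC50 derived for proliferation inhibition.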

[3] = biological target: T1, ERα (Homo sapiens, UniProt P03372); assay: Degradation of ERα in MCF-7 cells (immunoblotting, 4 h)
T1 sequence (P03372 1-595): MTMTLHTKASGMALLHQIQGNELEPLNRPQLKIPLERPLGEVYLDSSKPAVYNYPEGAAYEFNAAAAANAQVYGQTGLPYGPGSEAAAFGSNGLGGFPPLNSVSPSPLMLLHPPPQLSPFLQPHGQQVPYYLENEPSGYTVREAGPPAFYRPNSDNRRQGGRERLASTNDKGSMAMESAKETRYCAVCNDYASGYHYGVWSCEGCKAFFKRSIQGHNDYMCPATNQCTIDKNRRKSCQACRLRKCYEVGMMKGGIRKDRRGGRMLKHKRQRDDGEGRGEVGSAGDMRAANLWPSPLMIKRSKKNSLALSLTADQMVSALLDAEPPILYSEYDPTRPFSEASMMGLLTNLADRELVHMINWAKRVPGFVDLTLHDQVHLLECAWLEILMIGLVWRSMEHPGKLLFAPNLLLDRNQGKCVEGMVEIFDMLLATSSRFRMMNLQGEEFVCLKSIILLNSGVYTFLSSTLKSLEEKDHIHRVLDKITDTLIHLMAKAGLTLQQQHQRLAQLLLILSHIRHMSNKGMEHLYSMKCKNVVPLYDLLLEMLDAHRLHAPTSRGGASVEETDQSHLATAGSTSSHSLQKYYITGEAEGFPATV
How it was run: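 MCF-7 cells treated 4 h at 37°C with compounds at 0.15-1000nM final. ERα in lysates measured by immunoblot, with band grayscale normalized to an internal reference protein. Degradation rate calculated against DMSO-treated control.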

[4] = biological target: T1, ERα; assay: Degradation of ERα in T-47D cells (immunoblotting, 4 h); set-up: host or cells: T-47D
How it was run: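 T-47D cells were treated with compound (final 0.15-1000 nM, DMSO) for 4 h at 37°C, 5% CO2. Cells were lysed in RIPA buffer with protease inhibitor, and ERα protein in the cleared lysate was measured by immunoblotting.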

[5] = treated for 9 days, CCK-8 kit (Table 6)

SMILES | pIC50 ([1]; Table 3) | pIC50 [2, 5] | Degradation rate (%) of ERα in MCF-7 cells ([3]; 1nM compound) | Degradation rate (%) of ERα in MCF-7 cells ([3]; 10nM compound) | Degradation rate (%) of ERα in T-47D cells ([4]; 1nM compound) | Degradation rate (%) of ERα in T-47D cells ([4]; 10nM compound) | pIC50 ([1]; Table 2) | pIC50 ([2]; 9 days of treatment, CCK-8, Table 5)
CCNC(=O)[C@H]1CC(N2CCC3(CC2)COc2c3ccc3c2CN(C2CCC(=O)NC2=O)C3=O)CCN1C1CC2(CCN(c3ccc([C@@H]4c5ccc(O)cc5CC[C@@H]4c4ccccc4)cc3)CC2)C1 (stereo partly drawn) [K26] | 8.95 | 7.32 | 67% | 88% | 56% | 87% | – | –
O=C1CCC(N2Cc3c(ccc4c3OCC43CCN(C4CCN(C5CC6(CCN(c7ccc([C@@H]8c9ccc(O)cc9CC[C@@H]8c8ccccc8)cc7)CC6)C5)[C@@H](C(=O)NC5CC5)C4)CC3)C2=O)C(=O)N1 (stereo partly drawn) [K27] | 8.98 | 7.48 | 71% | 86% | 69% | 88% | – | –
C[C@@H]1Cc2c(ccc3[nH]ncc23)C(c2ccc(N3CCC4(CCC(N5CCC6(CC5)COc5c6ccc6c5CN(C5CCC(=O)NC5=O)C6=O)CC4)CC3)cn2)N1CC(F)(F)F (stereo partly drawn) [K41] | 7.39 | 6.23 | -3% | 64% | 54% | 84% | – | –
O=C1CCC(N2Cc3ccc4c(c3C2=O)OC2(CC4)CCN(C3CCC4(CC3)CCN(c3ccc([C@@H]5c6ccc(O)cc6CC[C@@H]5c5ccccc5)cc3)CC4)CC2)C(=O)N1 (stereo partly drawn) [L1] | – | – | -2% | -29% | -9% | -45% | 8.28 | 6.89
O=C1CCC(N2Cc3ccc4c(c3C2=O)OCC2(CCN(C3CCC5(CC3)CCN(c3ccc([C@@H]6c7ccc(O)cc7CC[C@@H]6c6ccccc6)cc3)CC5)CC2)C4)C(=O)N1 (stereo partly drawn) [L3] | 8.30 | 6.89 | 23% | 44% | 25% | 54% | – | –
O=C1CCC(N2C(=O)c3ccc4c(c3C2=O)OC2(CC4)CCN(C3CCC4(CC3)CN(c3ccc([C@@H]5c6ccc(O)cc6CC[C@@H]5c5ccccc5)cc3)C4)CC2)C(=O)N1 (stereo partly drawn) [L8] | 7.87 | 6.00 | 27% | 27% | 32% | 21% | – | –
O=C1CCC(N2Cc3ccc4c(c3C2=O)CC2(CCN(C3CCC5(CC3)CN(c3ccc([C@@H]6c7ccc(O)cc7CC[C@@H]6c6ccccc6)cc3)C5)CC2)CO4)C(=O)N1 (stereo partly drawn) [L10] | 7.75 | 6.03 | -11% | -6% | 14% | 29% | – | –
O=C1CCC(N2Cc3c(ccc4c3OCC43CCN(C4CCC5(CC4)CN(c4ccc([C@@H]6c7ccc(O)cc7CC[C@@H]6c6ccccc6)cc4)C5)CC3)C2=O)C(=O)N1 (stereo partly drawn) [L11] | 8.40 | 8.30 | 37% | 60% | 14% | 69% | – | –
O=C1CCC(N2Cc3c(ccc4c3OCC43CCN(C4CCC5(CC4)CCN(c4ccc([C@@H]6c7ccc(O)cc7CC[C@@H]6c6ccccc6)cc4)CC5)CC3)C2=O)C(=O)N1 (stereo partly drawn) [L15] | 8.10 | 7.72 | 18% | 57% | 23% | 71% | – | –
O=C1CCC(N2Cc3c(ccc4c3OCC43CCN(C4CC5(CCN(c6ccc([C@@H]7c8ccc(O)cc8CC[C@@H]7c7ccccc7)cc6)CC5)C4)CC3)C2=O)C(=O)N1 (stereo partly drawn) [L16] | 8.15 | 7.41 | 29% | 51% | 29% | 64% | – | –
O=C1CCC(N2Cc3ccc4c(c3C2=O)OCC42CCN(C3CCC4(CC3)CN(c3ccc([C@@H]5c6ccc(O)cc6CC[C@@H]5c5ccccc5)cc3)C4)CC2)C(=O)N1 (stereo partly drawn) [L25] | 8.10 | 6.12 | -20% | 6% | -1% | 17% | – | –
O=C1CCC(N2Cc3ccc4c(c3C2=O)OCC42CCN(C3CC4(CCN(c5ccc([C@@H]6c7ccc(O)cc7CC[C@@H]6c6ccccc6)cc5)CC4)C3)CC2)C(=O)N1 (stereo partly drawn) [L26] | 8.19 | 6.08 | 10% | 18% | -11% | 30% | – | –
O=C1CCC(N2Cc3c(ccc4c3OCC43CCN(C(=O)C4CCC5(CC4)CCN(c4ccc([C@@H]6c7ccc(O)cc7CC[C@@H]6c6ccccc6)cc4)CC5)CC3)C2=O)C(=O)N1 (stereo partly drawn) [L27] | 8.07 | < 4.00 | 24% | 52% | 12% | 66% | – | –
O=C1CCC(N2Cc3cc4c(cc3C2=O)CCC2(CN(CC3CCC5(CC3)CN(c3ccc([C@@H]6c7ccc(O)cc7CC[C@@H]6c6ccccc6)cc3)C5)C2)O4)C(=O)N1 (stereo partly drawn) [M15] | 8.22 | 7.32 | -23% | -24% | -15% | 13% | – | –
O=C1CCC(N2Cc3cc4c(cc3C2=O)OC2(CC4)CCN(C3CC4(CCN(c5ccc([C@@H]6c7ccc(O)cc7CC[C@@H]6c6ccccc6)cc5)CC4)C3)CC2)C(=O)N1 (stereo partly drawn) [M17] | 8.10 | 7.52 | -9% | 0% | 10% | 20% | – | –
CN(C1CCN(c2ccc([C@@H]3c4ccc(O)cc4CC[C@@H]3c3ccccc3)cc2)CC1)[C@H]1CC[C@H](C(=O)N2CCC3(CC2)COc2c3ccc3c2CN(C2CCC(=O)NC2=O)C3=O)CC1 (stereo partly drawn) [N2] | 8.44 | 6.61 | -7% | -8% | 10% | 42% | – | –
CN(CC1CCN(c2ccc([C@@H]3c4ccc(O)cc4CC[C@@H]3c3ccccc3)cc2)CC1)[C@H]1CC[C@H](C(=O)N2CCC3(CC2)COc2c3ccc3c2CN(C2CCC(=O)NC2=O)C3=O)CC1 (stereo partly drawn) [N3] | 8.31 | 6.71 | -4% | 1% | 30% | 70% | – | –
O=C1CCC(N2Cc3c(ccc4c3OCC43CCN(CCN4CCC5(CCN(c6ccc([C@@H]7c8ccc(O)cc8CC[C@@H]7c7ccccc7)cc6)CC5)C4)CC3)C2=O)C(=O)N1 (stereo partly drawn) [N4] | 8.52 | 6.88 | 54% | 73% | 64% | 85% | – | –
O=C1CCC(N2Cc3c(ccc4c3OCC43CCN(C(=O)C(=O)N4CCC5(CCN(c6ccc([C@@H]7c8ccc(O)cc8CC[C@@H]7c7ccccc7)cc6)CC5)C4)CC3)C2=O)C(=O)N1 (stereo partly drawn) [N5] | 8.75 | 7.47 | 58% | 69% | 63% | 82% | – | –
CCN(CC1CCN(c2ccc([C@@H]3c4ccc(O)cc4CC[C@@H]3c3ccccc3)cc2)CC1)[C@H]1CC[C@@H](C(=O)N2CCC3(CC2)COc2c3ccc3c2CN(C2CCC(=O)NC2=O)C3=O)CC1 (stereo partly drawn) [N8] | 8.18 | 4.60 | -2% | 31% | 21% | 55% | – | –
